Reference: US7973128B2, “Immunogenic polypeptide composed of tumor antigen-derived optimized cryptic peptides, and uses thereof” (Vaxon Biotech, priority 2005, dated 2011)

Legend:
[1] = test system: HLA-A*0201 transgenic HHD mice; experiment: Tetramer-positive CD8 T cells in draining lymph nodes of vaccinated HHD mice; format: in vivo, mouse; settings: for Responding mice (response to at least one peptide) / Frequency of strong responses (% of tetramer-positive CD8 cells at least twice the cutoff value; ++): HHD mice vaccinated with polypeptide; for Trispecific response: HHD mice, response to all three peptides
Protocol: HHD mice were injected subcutaneously with 100 μg of nonamer/decamer peptides, and with 240 μg of polypeptide emulsified in incomplete Freund's adjuvant (IFA) plus 150 μg of the I-A^b restricted HBVcore128 T-helper epitope. Eleven days later spleen cells (5×10^7 cells in 10 ml) from immunized mice were stimulated in vitro with peptide (10 μM) in RPMI 1640+10% FCS for five days. The CTL lines were established by weekly re-stimulation in vitro with irradiated spleen cells in the presence of diminishing peptide concentrations (1 to 0.1 μM) and 50 U/ml IL-2 (Proleukin, Chiron Corp., Emeryville, Calif.).
For tetramer labeling, cells from inguinal and para-aortic lymph nodes (LN) of immunized mice were stained with 15 μg/ml PE-coupled HLA-A2/TERT988Y, HLA-A2/MAGE-A248V9 and HLA-A2/HER-2/neu402Y tetramers (Proimmune, Oxford, UK) in the presence of an anti-Fc receptor antibody (clone 2.4 G2) in 20 μl of PBS, 2% FCS for 1 h at room temperature. The cells were washed once in PBS, 2% FCS and then stained with anti-CD44-FITC (clone 1M.178), anti-TCRβ-cychrome (clone H57) and anti-CD8α-APC (clone 53.6.7) (BD Biosciences, Le Pont de Claix, France) in 50 μl of PBS, 2% FCS for 30 min at 4° C. The cells were then washed once in PBS, 2% FCS and immediately analyzed in a FACSCalibur® flow cytometer (Becton Dickinson, San Jose, Calif., USA).
The simplest way to stimulate a polyspecific CTL response in vivo would be to inject a mixture of the relevant peptides. Therefore, the inventors examined whether HHD mice vaccinated with an equimolar mixture of peptides HER-2/neu402Y, TERT988Y and MAGE-A248V9 developed a polyspecific response in vivo. The immune response was evaluated by measuring the frequency of peptide-specific CD8 T cells in the lymph nodes draining the injection site seven days after vaccination, using specific tetramers. Before use, each tetramer was validated with peptide-specific CTL lines as previously described (Miconnet et al., 2002). A positive response was recorded when the percentage of tetramer-positive CD8 cells was higher than the mean percentage+3 standard deviations of tetramer-positive CD8 cells in six naive mice (0.16% for MAGE-A248V9, 0.13% for HER-2/neu402Y and 0.16% for TERT988Y). Eight mice were vaccinated with the peptide mixture in two independent experiments (Table 2). […] Three mice responded to one peptide and five responded to two peptides. Responses to MAGE-A248V9 were more frequent (6/8 mice) than responses to HER-2/neu402Y (4/8 mice) or TERT988Y (3/8 mice).
HHD mice were vaccinated with each polypeptide, and CD8 T cells specific for the individual peptides were identified in draining lymph nodes by using specific tetramers. All six polypeptide variants were immunogenic in HHD mice (i.e., they generated a response to at least one peptide) but the frequency of responding mice varied from one variant to the other. The most immunogenic variants were Poly-1, Poly-3 and Poly-6, with 100%, 87% and 83% of responding mice, respectively (Table 6). Poly-2, Poly-4 and Poly-5 induced a response in respectively 57%, 62% and 62% of vaccinated mice. The frequency of strong responses (% of tetramer-positive CD8 cells at least twice the cutoff value; designated ++) was highest with Poly-6 (41% of all responses), Poly-3 (30% of all responses) and Poly-1 (25% of all responses). The responses were directed against MAGE-A248V9 in 74% of responding mice, HER-2/neu402Y in 71% and TERT988Y in 55%.

[2] = test system: PBMC from healthy HLA-A*0201 donors; experiment: In vitro stimulation of healthy donor PBMC, intracellular IFNγ labeling of CD8 cells; format: cell-based, human; settings: for Donors with responses to all three peptides (trispecific): healthy donor PBMC, IFNγ-producing CD8 cells
Protocol: PBMC were collected by leukapheresis from healthy HLA-A*0201 volunteers. Dendritic cells (DC) were produced from adherent cells (2×10^6 cells/ml) cultured for seven days with 500 IU/ml GM-CSF (Leucomax®, Schering-Plough, Kenilworth, N.J.) and 500 IU/ml IL-4 (R&D Systems, Minneapolis, Minn.) in complete medium (RPMI 1640 supplemented with 10% heat-inactivated human AB serum, […] and antibiotics). On day 7, DC were pulsed with 10 μM peptides or polypeptides for 2 h; the maturation agents Poly I:C (Sigma, Oakville, Canada) at 100 ng/ml, and anti-CD40 mAb (clone G28-5, ATCC, Manassas, Va.) at 2 μg/ml were added to the culture and DCs were further incubated at 37° C. overnight or for up to 48 hours. Mature DC were then irradiated (3500 rads). CD8+ cells were purified by positive selection with CD8 MicroBeads (Miltenyi Biotec, Auburn, Calif.) according to the manufacturer's instructions. CD8^+ cells (2×10^5)+CD8^− cells (6×10^4) were stimulated with 2×10^4 peptide-pulsed DC in complete culture medium supplemented with 1000 IU/ml IL-6 and 5 IU/ml IL-12 (R&D Systems, Minneapolis, Minn.) in round-bottomed 96-well plates. From day 7, cultures were restimulated weekly with peptide-loaded DC in the presence of 20 IU/ml IL-2 (Proleukin, Chiron Corp., Emeryville, Calif.) and 10 ng/ml IL-7 (R&D Systems, Minneapolis, Minn.). After the third restimulation, CD8 cells were tested in an IFN-γ release assay.
T cells (10^5) were incubated with 2×10^5 T2 cells loaded with stimulating peptide in the presence of 20 μg/ml Brefeldin-A (Sigma, Oakville, Canada). Six hours later they were washed, stained with r-phycoerythrin-conjugated anti-CD8 antibody (Caltag Laboratories, Burlingame, Calif.) in PBS for 25 min at 4° C., washed again, and fixed with 4% PFA. The cells were then permeabilized with PBS, 0.5% BSA, 0.2% saponin (Sigma, Oakville, Canada), and labeled with an allophycocyanin-conjugated anti-IFNγ mAb (PharMingen, Mississauga, Canada) for 25 min at 4° C. before analysis with a FACSCalibur™ flow cytometer (Becton Dickinson, Mountain View, Calif.).
The inability of the peptide mixture to stimulate a trispecific CD8 T cell response was confirmed in vitro with human cells. […] PBMC activation was evaluated by measuring the percentage of IFNγ-producing CD8 cells by means of intracellular labeling. A positive response was recorded when the percentage of activated PBMC was at least twice that obtained with an irrelevant peptide. […]
In vitro immune responses were assessed by measuring the percentage of CD8 cells producing IFNγ after specific peptide activation. […]

Substance	Responding mice (response to at least one peptide) ([1]; tetramers)	Trispecific response [1]	Frequency of strong responses (% of tetramer-positive CD8 cells at least twice the cutoff value; ++) [1]	Donors with responses to all three peptides (trispecific) [2]	Immunogenicity in HHD mice, in words ([1]; response to at least one peptide)	Mice responding simultaneously to all three peptides (trispecific response), in words ([1]; vaccinated HHD mice, tetramers)	Strength of responses in human donor cells, in words ([2]; against MAGE-A248V9 in donors #D7017 and #D7225, against HER-2/neu402Y in donor #D7744)	Peptides the donor's CD8 cells responded to ([2]; donor #D7225)
YLEEITGYL-YLEYRQVPV-YLQVNSLQTV (SEQ ID No: 6) (YLEEITGYLYLEYRQVPVYLQVNSLQTV; Poly-4) [polypeptide variant, arrangement N-M-T]	62%	37.5 % of vaccinated mice	–	–	–	–	–	–
YLEEITGYL-YLQVNSLQTV-YLEYRQVPV (SEQ ID No: 5) (YLEEITGYLYLQVNSLQTVYLEYRQVPV; Poly-3) [polypeptide variant, arrangement N-T-M]	87%	12.5 % of vaccinated mice	30 % of all responses	–	–	–	–	–
YLEYRQVPV-YLEEITGYL-YLQVNSLQTV (SEQ ID No: 3) (YLEYRQVPVYLEEITGYLYLQVNSLQTV; Poly-1) [polypeptide variant of MAGE-A248V9, HER-2/neu402Y and TERT988Y, arrangement M-N-T]	100%	28.5 % of vaccinated mice	25 % of all responses	25 % of donors	–	–	–	–
YLEYRQVPV-YLQVNSLQTV-YLEEITGYL (SEQ ID No: 4) (YLEYRQVPVYLQVNSLQTVYLEEITGYL; Poly-2) [polypeptide variant, arrangement M-T-N]	57%	–	–	–	very weakly immunogenic	did not induce a trispecific response in any mice	–	–
YLQVNSLQTV-YLEEITGYL-YLEYRQVPV (SEQ ID No: 7) (YLQVNSLQTVYLEEITGYLYLEYRQVPV; Poly-5) [polypeptide variant, arrangement T-N-M]	62%	25 % of vaccinated mice	–	–	–	–	–	–
YLQVNSLQTV-YLEYRQVPV-YLEEITGYL (SEQ ID No: 2) (YLQVNSLQTVYLEYRQVPVYLEEITGYL; Poly-6) [polypeptide variant, arrangement T-M-N]	83%	67 % of vaccinated mice	41 % of all responses	80 % of donors	–	–	strongest responses	all three peptides
